# Read-outs that look alike come from different tables or passages of the source. Peptide text beside a SMILES is read from it.
# Key:
# [1] = Stability against chemical degradation in water or pH buffers at 50° C. (HPLC); details: for precipitation during stability test: 0.2% AI, 0.25% Proxel GXL, 50 mM buffers, 50° C.
# Experimental: Briefly, the stability and resistance to chemical degradation of peptides can be assessed as follows using peptide samples having an initial purity of at least about 80%, at least about 82%, at least about 84%, at least about 86%, at least about 88%, at least about 90%, at least about 92%, at least about 94%, at least about 96%, or at least about 98%. For water stability, the peptide is dissolved directly in de-ionized water. For chemical degradation tests, the peptide is dissolved in an aqueous solution containing 50 mM pH buffer and 0.25% Proxel GXL. Exemplary pH buffers include, without limitation: (i) Citrate pH 5.6; (ii) MES pH 6.2; (iii) MOPS pH 6.5; (iv) imidazole pH 7.0; (v) Citrate pH 7.2; (vi) EDDS, pH 7.3; (vii) EDTA pH 8.0; (viii) sodium phosphate pH 8.0; or (ix) TES pH 8.0. Peptides are first dissolved in the aqueous solution at a concentration of 0.5 mg/ml. […] An initial sample of the peptide is removed, diluted 10× with water, and analyzed by reverse-phase HPLC. Briefly, 20 μl of the sample is injected into the solvent flow of an HPLC instrument and analyzed on a C18 HPLC column (YMC ProPack C18, YMC, Japan, or C18 Stablebond, Agilent Technologies, USA) using either a triethylamine phosphate in water/acetonitrile gradient or a 0.1% TFA in water/0.1% TFA in acetonitrile gradient to separate different peptide species. Eluting peptides are monitored by UV absorbance at 218 nm and quantified based on the area under the peak. The area under the peak for the initial peptide sample is treated as the standard for relative quantification in subsequent runs. At regular intervals (e.g., 1, 3, 7, 10, 14, 17, and 21 days), each peptide sample is surveyed and analyzed by HPLC as described above.
# Stability against chemical degradation was assessed in various pH buffers by creating 0.2% AI solutions of pure, chemically synthesized peptide in deionized water, 0.25% weight to volume of Proxel® GXL (biocide), and 50 millimolar (mM) of eight buffers (separately) as follows: MES pH 5.6, MOPS pH 6.5, Citrate pH 7.2, EDDS pH 7.3, EDTA pH 8, Phosphate pH 8, Imidazole pH 8, and TES pH 8.
# [2] = 0.2% AI in deionized water, 48 hours at room temperature
# [3] = 50° C., 50 mM TES, pH 8.0 and 30% isopropanol
# [4] = pH 8
# [5] = not given; remark: listed apart in the source
# Soy = assay: Growth test, foliar spray, soy; format: in vivo
# Experimental: For growth tests, corn and soy seeds were planted in flats with 2 seeds per cell within the flat at a greenhouse facility. The seeds were allowed to germinate and the smaller plant is culled, leaving one plant per cell. Once the first true leaves are fully expanded and the second leaves are beginning to expand, the plants were initially measured for height. This was performed by stretching the highest leaf upward and measuring the distance to the soil. Peptides were dissolved in water at the indicated concentrations (below). The plants were then treated with a foliar spray using widely available spray bottles until liquid was dripping from the leaves. 4 flats of 14 plants each were treated per condition (peptide or control). Corn and soy were treated as indicated in Table 13 and compared with matched water-treated control plants. The plants were allowed to grow for 14 days. The height of the plants was again measured and compared to the original height to quantify growth. In some cases, the plants were allowed to grow without watering for 2-4 days until the onset of wilting and drought stress. At this time, the above-ground portions of the plants were harvested and weighed to determine the fresh mass. […] Growth, dry biomass, and fresh mass are calculated as the % increase over the water-treated control.
compound,measurement,setting,value
CC[C@H](C)[C@H](NC(=O)CNC(=O)[C@H](CCC(N)=O)NC(=O)[C@@H](N)CC(N)=O)C(=O)N[C@@H](CO)C(=O)N[C@@H](CCC(=O)O)C(=O)N[C@@H](CCCCN)C(=O)N[C@@H](CCC(N)=O)C(=O)N[C@@H](CC(C)C)C(=O)N[C@@H](CC(=O)O)C(=O)N[C@@H](CCC(N)=O)C(=O)N[C@@H](CC(C)C)C(=O)N[C@@H](CC(C)C)C(=O)N[C@H](C(=O)N[C@@H](CCC(N)=O)C(=O)N[C@@H](CC(C)C)C(=O)N[C@H](C(=O)N[C@@H](CCCCN)C(=O)N[C@@H](C)C(=O)N[C@@H](CC(C)C)C(=O)N[C@@H](CC(C)C)C(=O)N[C@@H](CCC(N)=O)C(=O)N[C@@H](CCC(N)=O)C(=O)O)[C@@H](C)CC)[C@@H](C)O [Peptide P1-18K] (H-NQGISEKQLDQLLTQLIKALLQQ-OH; N-terminus and C-terminus assumed),% remaining after 14 days incubation,"[1]; 50 mM TES, pH 8.0, 50° C.",58%
same,solubility,,≥ 20 mg/mL
CC[C@H](C)[C@H](NC(=O)CNC(=O)[C@H](CCC(N)=O)NC(=O)[C@@H](N)CC(N)=O)C(=O)N[C@@H](CO)C(=O)N[C@@H](CCC(=O)O)C(=O)N[C@@H](CCCCN)C(=O)N[C@@H](CCC(N)=O)C(=O)N[C@@H](CC(C)C)C(=O)N[C@@H](CC(=O)O)C(=O)N[C@@H](CCC(N)=O)C(=O)N[C@@H](CC(C)C)C(=O)N[C@@H](CC(C)C)C(=O)N[C@H](C(=O)N[C@@H](CCC(N)=O)C(=O)N[C@@H](CC(C)C)C(=O)N[C@H](C(=O)N[C@@H](CCSC)C(=O)N[C@@H](C)C(=O)N[C@@H](CC(C)C)C(=O)N[C@@H](CC(C)C)C(=O)N[C@@H](CCC(N)=O)C(=O)N[C@@H](CCC(N)=O)C(=O)O)[C@@H](C)CC)[C@@H](C)O [Peptide P1] (H-NQGISEKQLDQLLTQLIMALLQQ-OH; N-terminus and C-terminus assumed),% of the material remaining after 7 days,"[1]; 50 mM EDDS, pH 7.3",10%
same,better stability than the mutants after 14 days,"[1]; 50 mM MES pH 6.0, 50° C.",10-30%
same,% degraded after 1 week of incubation,"[1]; 50 mM TES, pH 8.0, 80° C. as printed",more than 90%
same,precipitation during stability test,[1],Precipitation of P1 was observed after several days
same,stability (in words),"[1]; dissolved in water, FIG. 1",modestly stable
same,solubility behaviour,"[1]; lower pH: deionized water, 50 mM citrate pH 5.6, 50 mM MES pH 6.0",solubility problems
same,solubility (in words),"[1]; phosphate, pH 8.0",some cloudiness in solution
same,stability (in words),"[1]; phosphate, pH 8.0",appears to outperform the stability of the mutants
same,solubility,,< 1 mg/mL
same,solubility,[2],largely insoluble in water
CC[C@H](C)[C@H](NC(=O)CNC(=O)[C@H](CCC(N)=O)NC(=O)[C@@H](N)CO)C(=O)N[C@@H](CO)C(=O)N[C@@H](CCC(=O)O)C(=O)N[C@@H](CCCCN)C(=O)N[C@@H](CCC(N)=O)C(=O)N[C@@H](CC(C)C)C(=O)N[C@@H](CC(=O)O)C(=O)N[C@@H](CCC(N)=O)C(=O)N[C@@H](CC(C)C)C(=O)N[C@@H](CC(C)C)C(=O)N[C@@H](CS)C(=O)N[C@@H](CCC(N)=O)C(=O)N[C@@H](CC(C)C)C(=O)N[C@H](C(=O)N[C@@H](CCC(N)=O)C(=O)N[C@@H](C)C(=O)N[C@@H](CC(C)C)C(=O)N[C@@H](CC(C)C)C(=O)N[C@@H](CCC(N)=O)C(=O)N1CCC[C@H]1C(=O)O)[C@@H](C)CC [Peptide P4] (H-SQGISEKQLDQLLCQLIQALLQP-OH; N-terminus and C-terminus assumed),precipitation during stability test,[1],remained in solution
same,solution stability (in words),[1]; aqueous solution,very poor stability
same,solubility,,≥ 100 mg/mL
same,solubility,[2],completely soluble
CSCC[C@H](NC(=O)[C@H](CC(C)C)NC(=O)[C@H](C)NC(=O)[C@H](CCC(N)=O)NC(=O)[C@H](CCSC)NC(=O)[C@@H]1CCCN1C(=O)[C@H](CC(=O)O)NC(=O)[C@@H](N)CCC(N)=O)C(=O)N[C@@H](CCC(N)=O)C(=O)N[C@@H](CC(C)C)C(=O)N[C@@H](CC(C)C)C(=O)N[C@@H](CCC(=O)O)C(=O)N[C@@H](CC(=O)O)C(=O)N[C@@H](CC(C)C)C(=O)N[C@H](C(=O)N[C@@H](CCCCN)C(=O)N[C@@H](CC(C)C)C(=O)N[C@@H](CC(C)C)C(=O)N[C@@H](CCCCN)C(=O)O)C(C)C [Peptide P14d] (H-QDPMQALMQLLEDLVKLLK-OH; N-terminus and C-terminus assumed),chemical stability for >50 days,[3],around 50%
CC[C@H](C)[C@H](NC(=O)[C@H](CCC(=O)O)NC(=O)[C@H](CCC(=O)O)NC(=O)[C@H](CCC(=O)O)NC(=O)[C@H](CCC(=O)O)NC(=O)[C@H](CCC(=O)O)NC(=O)[C@@H](N)CO)C(=O)N[C@@H](C)C(=O)N[C@@H](CCCCN)C(=O)N[C@@H](CC(C)C)C(=O)N[C@H](C(=O)N[C@@H](CO)C(=O)N[C@@H](C)C(=O)N[C@@H](CC(C)C)C(=O)N[C@H](C(=O)N[C@@H](CCC(=O)O)C(=O)N[C@@H](CO)C(=O)N[C@@H](CC(C)C)C(=O)N[C@@H](CC(C)C)C(=O)N[C@@H](CCC(=O)O)C(=O)O)[C@@H](C)CC)[C@@H](C)CC [Peptide P15-59] (H-SEEEEEIAKLISALIESLLE-OH; N-terminus and C-terminus assumed),solubility,[4],> 10000 µg/mL
CC[C@H](C)[C@H](NC(=O)[C@H](CC(N)=O)NC(=O)[C@H](CO)NC(=O)[C@H](CCC(N)=O)NC(=O)[C@H](CO)NC(=O)[C@H](CC(=O)O)NC(=O)[C@H](CC(N)=O)NC(=O)[C@@H]1CCCN1C(=O)[C@H](CCCCN)NC(=O)[C@H](CO)NC(=O)[C@H](C)NC(=O)[C@H](CC(=O)O)NC(=O)[C@H](CCC(N)=O)NC(=O)[C@@H]1CCCN1C(=O)[C@H](CC(N)=O)NC(=O)[C@H](CCC(N)=O)NC(=O)[C@@H](NC(=O)[C@@H](NC(=O)[C@H](CO)NC(=O)[C@H](CC(=O)O)NC(=O)[C@@H]1CCCN1C(=O)[C@@H](NC(=O)CNC(=O)[C@H](Cc1ccccc1)NC(=O)[C@@H](N)CC(N)=O)[C@@H](C)O)[C@@H](C)O)C(C)C)C(=O)N[C@@H](C)C(=O)N[C@@H](CCCCN)C(=O)N[C@@H](CC(C)C)C(=O)N[C@H](C(=O)N[C@@H](CO)C(=O)N[C@@H](C)C(=O)N[C@@H](CC(C)C)C(=O)N[C@H](C(=O)N[C@@H](CCSC)C(=O)N[C@@H](CO)C(=O)N[C@@H](CC(C)C)C(=O)N[C@@H](CC(C)C)C(=O)N[C@@H](CCC(N)=O)C(=O)N[C@@H](CCSC)C(=O)O)[C@@H](C)CC)[C@@H](C)CC [Peptide P15a] (H-NFGTPDSTVQNPQDASKPNDSQSNIAKLISALIMSLLQM-OH; N-terminus and C-terminus assumed),solubility,[4],> 10000 µg/mL
CC[C@H](C)[C@H](NC(=O)[C@H](CC(N)=O)NC(=O)[C@H](CO)NC(=O)[C@H](CCC(N)=O)NC(=O)[C@H](CO)NC(=O)[C@H](CC(=O)O)NC(=O)[C@H](CC(N)=O)NC(=O)[C@@H]1CCCN1C(=O)[C@@H](N)CCCCN)C(=O)N[C@@H](C)C(=O)N[C@@H](CCCCN)C(=O)N[C@@H](CC(C)C)C(=O)N[C@H](C(=O)N[C@@H](CO)C(=O)N[C@@H](C)C(=O)N[C@@H](CC(C)C)C(=O)N[C@H](C(=O)N[C@@H](CCSC)C(=O)N[C@@H](CO)C(=O)N[C@@H](CC(C)C)C(=O)N[C@@H](CC(C)C)C(=O)N[C@@H](CCC(N)=O)C(=O)O)[C@@H](C)CC)[C@@H](C)CC [Peptide P15b] (H-KPNDSQSNIAKLISALIMSLLQ-OH; N-terminus and C-terminus assumed),solubility at 0.2% w/v,"[5]; 50 mM MES pH 6.0, and MOPS pH 6.5",at least partially soluble
same,solubility at 0.2% w/v,"[5]; 50 mM of each of citrate pH ~5.2, citrate pH 7.0, phosphate pH 7.0, TES pH 8.0, EDTA pH 8.0, EDDS pH 7.0",insoluble
same,solubility at 0.2% w/v,[5]; water,partially soluble
SEGISEKQLDQLLSQLIEALLQP [Peptide P4-14S-18E],Growth (% difference),"Soy; Rate 2.0, 14 days, % increase over water-treated control",9.0 % difference
same,Dry biomass (% difference),"Soy; Rate 2.0, % increase over water-treated control",0.8 % difference
